Consider 2 molecules from US11890295B2, “Helicobacter pylori eradication method including step for orally administering composition including complex of non-absorbable antibiotic and clay mineral to subject” (KOREA INSTITUTE OF GEOSCIENCE AND MINERAL RESOURCES, priority 2018, dated 2024).

The subject of assay [1] is H. pylori, 187 culture-positive clinical strains. The experiment in a line: antibiotic resistant rate from in vitro MIC on clinical strains. The following applies: based on MIC 1 μg/mL. It is filed as cell-based, Helicobacter pylori. The procedure: In virto MIC for non-absorbable antibiotic candidates (gentamicin, netilmicin, tobramycin, and amikacin) to be used as novel therapeutic agents was measured by making complexes with antibiotics (amoxicillin, clarithromycin, metronidazole, levofloxacin, and tetracyclin) that were actually used for Helicobacter eradicating treatment in clinical trials and smectite, and MIC50 and MIC90 were identified. For this end, 187 culture-positive clinical strains obtained from 1,265 patient specimens were used.

For assay [2], the system named is Clarithromycin-resistant Helicobacter pylori bacteria. The experiment in a line: in vitro eradication activity on resistant strain, disk on medium. It is filed as cell-based. Particulars: twice repeated tests. The source says: Clarithromycin-resistant Helicobacter pylori bacteria were applied on a medium (red), and a sample was made in the form of a disk and placed on the medium to measure an eradicating effect. At this time, if the red color disappeared around the disk, it means that there was the eradicating effect.

Assay [3] has as its system clarithromycin-resistant strain. The experiment in a line: MIC of clarithromycin for the clarithromycin-resistant strain. The format is cell-based. The following applies: Helicobacter pylori.

For gentamicin, the “resistant rate of H. pylori” value in assay [1] came out at 2.78%.

For the molecule `CC[C@H]1OC(=O)[C@H](C)[C@@H](O[C@H]2C[C@@](C)(OC)[C@@H](O)[C@H](C)O2)[C@H](C)[C@@H](O[C@@H]2O[C@H](C)C[C@H](N(C)C)[C@H]2O)[C@](C)(OC)C[C@@H](C)C(=O)[C@H](C)[C@@H](O)[C@]1(C)O` [clarithromycin], the “clear zone around disk (eradication activity)” value in assay [2] is “no clear zone”. Moreover, the MIC (as a rule, the smallest concentration in the dilution series that meets the test's criterion for growth inhibition) in assay [3] is 48 µg/mL.
